# Test results taken from US20130022612A1, “METHODS AND COMPOSITIONS FOR MALARIA PROPHYLAXIS” (priority 2004, published 2013).
# How the values were obtained:
# [1] = tested on: CSP processing in P. berghei sporozoites; assay: Pulse-chase metabolic labeling of CSP processing, P. berghei sporozoites; assay type: cell-based, Plasmodium berghei
# Protocol: P. berghei sporozoites were incubated in Dulbecco's Modified Eagle Medium (DMEM; Invitrogen, Carlsbad, Calif.) without cysteine (Cys) and methionine (Met), containing 1% BSA and […] L-[35 S]-Cys/Met (Pro-Mix, Amersham Pharmacia) in a total volume of 200 μl for one hour at 28° C. They were then washed and resuspended in DMEM/BSA containing unlabeled Cys/Met at 28° C. for the indicated time in the presence or absence of the indicated protease inhibitor. Sporozoites were then lysed and CSP was immunoprecipitated and analyzed by autoradiography as outlined below.
# When sporozoites were incubated with specific inhibitors, their concentrations were as follows: 10 […] E-64; 1 mM phenylmethylsulfonyl fluoride (PMSF); 0.3 mM aprotinin; 100 mM 3,4 DCl; 75 mM leupeptin; 100 mM TLCK; 1 mM pepstatin; 1 mM 1,10 phenanthroline; 5 mM EDTA; 0.5% sodium azide. To check for toxicity by propidium iodide (PI) staining, P. berghei sporozoites were incubated in the presence or absence of the various protease inhibitors for two hours at 28° C., PI was then added to a final concentration of […] for five minutes at 28° C. The sporozoites were washed and viewed under a fluorescent microscope.
# Metabolically-labeled sporozoites were lysed in lysis buffer (1% Triton X-100, 50 mM Tris-HCl pH 8.0) with 150 mM NaCl containing a protease inhibitor cocktail (Complete Mini-Tablets, Roche) for one hour at 4° C. The lysates were incubated with mAb 3D11 conjugated to agarose overnight at 4° C. with agitation, and the beads were then washed sequentially with lysis buffer containing 150 mM NaCl, high salt buffer (500 mM NaCl in lysis buffer), lysis buffer without added NaCl, and pre-elution buffer (0.5% Triton X-100, 10 mM Tris-HCl pH 6.8). CSP was eluted with 1% SDS in 0.1 M glycine pH 1.8, neutralized with 1.5 M Tris-HCl pH 8.8, and run on a 7.5% SDS-polyacrylamide gel under nonreducing conditions.
# P. berghei sporozoites were metabolically labeled as previously described (Bruna-Romero, O., et al.). Briefly, sporozoites were labeled in Dulbecco's Modified Eagle Medium containing 1% BSA (DMEM/BSA) without Cys/Met and with 400 μCi/ml L-[^35S]Cys/Met for one hour at 28° C. and chased in DMEM/BSA with Cys/Met at 28° C. in the presence of 10 μM E-64 or the indicated concentrations of allicin. Labeled sporozoites were lysed in 1% Triton X-100/150 mM NaCl/50 mM Tris-HCl pH 8.0 with protease inhibitors, and lysates were incubated with 3D11-sepharose overnight at 4° C. CSP was eluted with 1% SDS in 0.1 M glycine pH 1.8, neutralized with Tris-HCl pH 8.8, and run on a 7.5% SDS-polyacrylamide gel under nonreducing conditions. The gel was fixed, enhanced with Amplify (Amersham Pharmacia), dried and exposed to film.
# P. berghei sporozoites were metabolically labeled in DMEM without Cys/Met, 1% BSA and 400 μCi/ml L-[^355]-Cys/Met for 1 hour at 28° C. and then kept on ice or chased at 28° C. for the indicated times. Details of this procedure are outlined in (Coppi et al., 2005). To investigate the kinetics of processing in the presence of hepatocytes, sporozoites were labeled as above, chased at 28° C. for 1 hour and then centrifuged (300×g) onto glass coverslips with Hepa 1-6 cells and incubated at 37° C. for 5, 15 or 30 minutes. To investigate the effect of antibodies on CSP cleavage, sporozoites were labeled as above and then chased for 2 hours in the presence of the indicated antibody. Monoclonal antibodies were used as purified antibodies at the indicated concentrations and the IgG fraction of the NH2-terminal antiserum was used after isolation by Protein A (Vivapure maxiprepA; Sartorius, Edgewood, N.Y.). In all cases, labeled sporozoites (with or without Hepa 1-6 cells) were lysed and labeled CSP was immunoprecipitated with mAb-3D11 conjugated to sepharose or in the case of P. falciparum CSP, with mAb-2A10 conjugated to sepharose, as previously described (Coppi et al., 2005). CSP was eluted from the beads, run on an SDS-PAGE gel which was enhanced, dried and exposed to film. […]
# P. berghei sporozoites = assay type: cell-based, Plasmodium berghei
# Protocol: %invasion=total sporozites−extracellular sporozites×100/total sporozites
# Invasion assays were performed as previously described (Pinzon-Ortiz, C., et al.) with some modifications. […] Cells were then washed, fixed, and sporozoites were stained with a double staining assay that distinguishes between intracellular and extracellular sporozoites (Renia, L., et al.). […]
# P. yoelii sporozoites = assay: Sporozoite infectivity in vivo (liver 18S rRNA by RT and real time PCR); parameters: species or system Plasmodium yoelii in Swiss/Webster mice
# Protocol: Swiss/Webster mice were given three intraperitoneal injections of DMEM with or without E-64 (50 mg/kg/injection) at 16 hours, 2.5 hours, and 1 hour prior to intravenous injection of 15,000 P. yoelii sporozoites. Forty hours later, livers were harvested and total RNA was isolated using Tri-Reagent (Molecular Research Center, Cincinnati, Ohio). Malaria infection was quantified using reverse-transcription (RT) followed by real time PCR as outlined in (Bruna-Romero, et al. (2001)). RTs were performed with […] of total RNA and random hexamers (PE Applied Biosystems, Foster City, Calif.). Real time PCR was performed using primers that recognize P. yoelii-specific sequences within the 18S rRNA (Bruna-Romero, et al. (2001)) and the SYBR Green Core PCR kit (PE Applied Biosystems). Ten-fold dilutions of a plasmid construct containing the P. yoelii 18S gene were used to create a standard curve.
# Swiss/Webster mice were given either 5 or 8 mg/kg of allicin (in DMEM without Cys/Met) intravenously (i.v.) at 60 minutes, 30 minutes, or immediately before i.v. injection of 10^4 P. yoelii sporozoites. Forty hours later, livers were harvested, total RNA was isolated, and malaria infection was quantified using reverse transcription (RT) followed by real time PCR using primers that recognize P. yoelii-specific sequences within the 18S rRNA as previously described (Bruna-Romero, O., et al.). Ten-fold dilutions of a plasmid construct containing the P. yoelii 18S rRNA gene were used to create a standard curve. For allicin preincubation experiments, P. yoelii sporozoites were preincubated with or without 50 μM allicin (in DMEM without Cys/Met) for ten minutes at 28° C. and diluted 12-fold with medium before i.v. injection into mice. All in vivo data were analyzed using the Student t-test for unpaired samples.
Compound,"effect on CSP processing ([1]; two hour chase at 28° C., 10 mM E-64, 1 mM PMSF, 0.3 mM aprotinin, 100 mM 3,4 DCl, 75 mM leupeptin, 100 mM TLCK, 1 mM pepstatin, 1 mM 1,10 phenanthroline, 5 mM EDTA)","effect on sporozoite invasion, target cells pretreated (P. berghei sporozoites; Hepa 1-6 cells pretreated with E-64, untreated sporozoites)",number of extracellular (attached) sporozoites (P. berghei sporozoites; in the presence of E-64),"inhibition of invasion (P. berghei sporozoites; sporozoites preincubated two hours with 10 mM E-64, Hepa 1-6 cells, one hour)","intracellular sporozoites in the presence of inhibitor (P. berghei sporozoites; wild type and RCon sporozoites, Hepa 1-6, 1 hr)","protection from malaria infection (liver P. yoelii 18S rRNA) (P. yoelii sporozoites; E-64 50 mg/kg/injection intraperitoneal at 16 hours, 2.5 hours, 1 hour before 15,000 sporozoites i.v.)","CSP cleavage ([1]; 50 μM allicin for 10 minutes, then diluted to 4.2 μM for the remainder of the chase)","CSP cleavage ([1]; 10, 25, and 50 μM allicin, two hour chase)",degree of inhibition of CSP cleavage relative to E-64 ([1]; allicin versus 10 μM E-64),"sporozoite invasion of cells (P. berghei sporozoites; 10, 25, and 50 μM allicin pretreatment)","effect on invasion, host cells pretreated (P. berghei sporozoites; Hepa 1-6 cells preincubated with 50 μM allicin one hour, untreated sporozoites)",sporozoite infectivity in vivo versus untreated controls (P. yoelii sporozoites; 8 mg/kg allicin i.v. just before injection of sporozoites),protection in vivo (P. yoelii sporozoites; 8 mg/kg allicin i.v. one hour before sporozoites),sporozoite infectivity in vivo versus untreated mice (P. yoelii sporozoites; 8 mg/kg allicin i.v. thirty minutes before sporozoites),reduction in infection (P. yoelii sporozoites; allicin 5 mg/kg i.v. one minute before sporozoites),decrease in infection compared to controls (P. yoelii sporozoites; allicin 8 mg/kg i.v. one minute before sporozoites),"malaria infection in mice injected with pretreated sporozoites (P. yoelii sporozoites; sporozoites preincubated with 50 μM allicin ten minutes, diluted 12-fold)"
"CC(C)C[C@H](NC(=O)[C@H]1O[C@@H]1C(=O)O)C(=O)NCCCCN=C(N)N (relative stereo) [E-64, L-trans-epoxysuccinyl-leucylamide-[4-guanido]-butane]",inhibited CSP processing,no inhibitory effect on sporozoite invasion,always enhanced,90%,few intracellular wild type and RCon sporozoites,completely protected from malaria infection,–,–,–,–,–,–,–,–,–,–,–
C=CCS[S+]([O-])CC=C (centres unmarked) [allicin],–,–,–,–,–,–,prevented CSP cleavage to the same extent as when 50 μM allicin was present during the entire chase,inhibited,comparable to that observed with E-64,inhibited sporozoite invasion of cells in a dose dependent manner,no effect on invasion,significantly decreased infectivity,little protection,decreased infectivity,10 fold,1000 fold,no evidence of malaria infection
